Measurements reported in patent US9545386B2, “Methods of treating infectious diseases” (SLIPPERY ROCK UNIVERSITY FOUNDATION, INC., priority 2007, dated 2017).
In brackets after ≈: the same amount, converted by molar mass.

Key:
[1] = tested on: S. stercoralis L3 larvae; settings: after 120 hr of incubation, Forbes et al. (unpublished); cited from earlier work
[2] = tested on: Trypanosoma rangeli trypomastigotes; assay: In vitro antitrypanosomal bioassay, trypomastigote counts (Probit LC50/LC95); format: cell-based; settings: T. rangeli; for 24 hr LC95 ± 95% confidence intervals: 24 hr in vitro, 0.02% Triton X-100; for 48 hr LC95 ± 95% confidence intervals: 48 hr in vitro
Method: (§1) In this study, 75 μl of Locke's nematode saline (L.N.S.) solution with approximately 1.0×10^5 trypomastigotes/ml of each organism were placed in 15 wells of a cell culture plate. For T. mega, T. conorhini and T. avium, stock concentrations of eryngial (1, 2, 3 and 4 mg/ml) with 0.04% (w/v) Triton X-100 were prepared in L.N.S. Triton X-100 acted as an emulsifier for eryngial. Triplicate samples of each eryngial concentration were prepared by adding 75 μl of the stock to the wells with trypomastigotes of each species. The number of trypanosomes in each well therefore approximated 5×10^4/ml, while final concentrations of eryngial in the wells were 0.5, 1.0, 1.5, and 2.0 mg/ml, respectively. Each sample also had 0.02% Trition X-100. The control samples had no eryngial. The number of trypomastigotes that were present in 20 μl sub-samples of each well was determined using a hemacytometer at 0, 24 and 48 hr. A count of the trypanosomes in each grid was recorded and the average number of organisms per milliliter was determined. The above procedure was repeated to determine the effect of eryngial on T. rangeli. However, the final concentration of eryngial, the test compound, ranged from 0.15 to 0.9 mg/ml.

[3] = tested on: Trypanosoma conorhini trypomastigotes; assay: as above; format: cell-based; settings: T. conorhini; for 24 hr LC95 ± 95% confidence intervals: 24 hr in vitro
Method: as §1

[4] = tested on: Trypanosoma avium trypomastigotes; assay: as above; format: cell-based; settings: T. avium
Method: as §1

[5] = tested on: Trypanosoma mega trypomastigotes; assay: as above; format: cell-based; settings: T. mega; for 24 hr LC95 ± 95% confidence intervals: 24 hr in vitro
Method: as §1

[6] = tested on: Escherichia coli; assay: Antibacterial MIC, 96 well broth dilution; format: cell-based; settings: E. coli (gram-negative), 24 hr, 0.02% Triton X-100, highest concentration tested 10 mg/ml
Method: (§2) Bacterial cultures were obtained from the American Type Culture Collection (ATCC), except for Streptococcus pyogenes, which was started from a Difco Bactrol disc. The other organisms were Enterococcus faecalis, Staphylococcus aureus, Escherichia coli, Salmonella typhimurium and Pseudomonas aeruginosa. Cultures were grown in Luria-Bertani (LB) broth. Fungi were obtained from Carolina Biological Supply Company (Aspergillus niger, Candida albicans and Cryptococcus neoformans); Presque Isle Cultures, Erie Pa. (Microsporum gypseum); or from ATCC (Penicillium marneffei). Fungal cultures were maintained in Sabouraud dextrose broth (SDB) or agar (SDA). All media components came from Difco.
(§3) Tests were done in flat-bottomed 96 well cell culture plates (Costar). All samples were done in duplicate. Eryngial was suspended in culture medium plus 0.04% Triton-X to make a 2% (20 mg/ml) suspension, which was passed through a 0.22 μm filter to make a uniform emulsion. Serial doubling dilutions of eryngial in culture medium plus 0.04% Triton-X were prepared, and 75 μl was added to each well. 75 μl of cell or spore suspensions in culture medium also were added to each well. The final concentration of Triton-X was 0.02%, and the final concentration of eryngial was 1% (10 mg/ml) at the highest concentration tested.
(§4) Overnight bacterial cultures in LB medium were diluted into fresh LB to an OD600 of 0.02 to 0.03, and then diluted 1000-fold again in LB. […] Blank wells for each concentration of eryngial were prepared with plain culture medium added.
(§5) The 96 well plates were incubated at 37° for 24 hr (in a candle jar for S. pyogenes), and the OD630 was read on an EL800 universal microplate reader (Bio-Tek Instruments). Readings from duplicate wells were averaged, and readings from duplicate blank wells for each concentration of eryngial were subtracted to generate the final values. The minimum inhibitory concentration (MIC, μg/ml) was defined as the well with the highest dilution of eryngial in which no growth was observed.

[7] = tested on: Salmonella typhimurium; assay: Antibacterial MIC, 96 well broth dilution; format: cell-based; settings: S. typhimurium (gram-negative), 24 hr, 0.02% Triton X-100, highest concentration tested 10 mg/ml
Method: as §2, §3, §4, §5

[8] = tested on: Pseudomonas aeruginosa; assay: Antibacterial MIC, 96 well broth dilution; format: cell-based; settings: P. aeruginosa (gram-negative), 24 hr, 0.02% Triton X-100, highest concentration tested 10 mg/ml
Method: as §2, §3, §4, §5

[9] = tested on: T. avium trypomastigotes; assay: Short-term behavioral study (swimming behavior and maneuverability); format: cell-based, Trypanosoma avium; settings: 75 μl eryngial (1%) and Triton X-100 (0.04%) added to 75 μl T. avium; observed at 15-minute intervals for 1 hr
Method: A short-term behavioral study also was conducted by adding 75 μl of eryngial (1%) and Triton X-100 (0.04%) to 75 μl of L.N.S. with T. avium (1.0×10^5 trypomastigotes/ml). The swimming behavior and maneuverability of the organisms were observed microscopically in triplicate samples at 15-minute intervals for 1 hr. This was recorded with a digital video camera.

[10] = tested on: Streptococcus pyogenes; assay: Antibacterial MIC/MBC, 96 well broth dilution; format: cell-based; settings: S. pyogenes, 24 hr in vitro, DMSO as solvent
Method: as §2, §3
(§6) Dimethyl sulfoxide (DMSO) also was used as a solvent for eryngial. A solution of 12.5% eryngial in DMSO was the initial solution. Doubling dilutions were carried out in DMSO. The DMSO-eryngial solutions were diluted 100-fold into growth medium, resulting in a final concentration of 1% DMSO, and 0.125% (1,250 μg/ml) eryngial as the highest concentration tested.
as §4, §5
(§7) To determine whether eryngial was merely inhibiting growth of the bacteria and fungi, or whether it also was having a killing effect, the minimum bactericidal concentrations (MBC, μg/ml) or minimum fungicidal concentrations (MFC, μg/ml) were determined. This was done by removing a 50 μl sample from a well after 24 hr (bacteria) or 96 hr (fungi) and diluting the samples in 5 ml of fresh culture medium. These tubes then were incubated at the appropriate temperature for 24-96 hr and observed for any signs of growth.

[11] = tested on: Staphylococcus aureus; assay: Antibacterial MIC/MBC, 96 well broth dilution; format: cell-based; settings: S. aureus, 24 hr in vitro, 0.02% Triton X-100
Method: as §2, §3, §6, §4, §5, §7

[12] = tested on: Enterococcus faecalis; assay: Antibacterial MIC/MBC, 96 well broth dilution; format: cell-based; settings: E. faecalis, 24 hr in vitro, 0.02% Triton X-100
Method: as §2, §3, §6, §4, §5, §7

[13] = 48 hr in vitro, listed as eryngial

SMILES: CCCCCCCCC/C=C/C=O [Eryngial, trans-2-dodecenal]
- increase in effectiveness over ivermectin based on time (hr) taken to kill 50% (LT50) [1]: 7.1 fold
- 24 hr LC95 ± 95% confidence intervals [2]: 0.45 (0.38-0.55) mg/ml
- 24 hr LC95 ± 95% confidence intervals ([2]; listed as eryngial): 0.45 mg/mL
- 48 hr LC95 ± 95% confidence intervals [2]: 0.31 (0.26-0.43) mg/ml
- 48 hr LC95 ± 95% confidence intervals ([2]; listed as eryngial): 0.31 mg/mL
- 24 hr LC95 ± 95% confidence intervals [3]: 2.91 (2.22-4.69) mg/ml
- 24 hr LC95 ± 95% confidence intervals ([3]; listed as eryngial): 2.91 mg/mL
- 48 hr LC50 ± 95% confidence intervals ([3]; 48 hr in vitro): 0.68 (0.62-0.75) mg/ml
- 48 hr LC95 ± 95% confidence intervals ([3]; 48 hr in vitro): 1.02 (0.91-1.20) mg/ml
- 48 hr LC95 ± 95% confidence intervals [3, 13]: 1.14 mg/mL
- 24 hr LC50 ± 95% confidence intervals ([4]; 24 hr in vitro): 1.19 (0.96-1.40) mg/ml
- 24 hr LC95 ± 95% confidence intervals ([4]; 24 hr in vitro): 3.12 (2.57-4.16) mg/ml
- 24 hr LC95 ± 95% confidence intervals ([4]; 24 hr in vitro, listed as eryngial): 3.12 mg/mL
- 48 hr LC50 ± 95% confidence intervals ([4]; 48 hr in vitro): 0.76 (0.63-0.87) mg/ml
- 48 hr LC95 ± 95% confidence intervals ([4]; 48 hr in vitro): 2.31 (1.87-3.26) mg/ml
- 48 hr LC95 ± 95% confidence intervals [4, 13]: 1.02 mg/mL
- 24 hr LC95 ± 95% confidence intervals [5]: 2.85 (2.20-4.40) mg/ml
- 24 hr LC95 ± 95% confidence intervals ([5]; listed as eryngial): 2.85 mg/mL
- 48 hr LC50 ± 95% confidence intervals ([5]; 48 hr in vitro): 0.50 (0.39-0.58) mg/ml
- 48 hr LC95 ± 95% confidence intervals ([5]; 48 hr in vitro): 1.14 (0.95-1.56) mg/ml
- 48 hr LC95 ± 95% confidence intervals [5, 13]: 2.31 mg/mL
- inhibited by eryngial [6]: none
- inhibited by eryngial [7]: none
- inhibited by eryngial [8]: none
- swimming behavior and maneuverability of trypomastigotes [9]: movement was completely stopped
- MBC [10]: 156 µg/mL (≈ 856 µM)
- MIC [10]: 156 µg/mL (≈ 856 µM)
- MBC [11]: 78 µg/mL (≈ 428 µM)
- MIC [11]: 78 µg/mL (≈ 428 µM)
- MBC [12]: 313 µg/mL (≈ 1720 µM)
- MIC [12]: 313 µg/mL (≈ 1720 µM)
